Source: patent publication US20250228824A1, “COMPOSITIONS AND METHODS FOR INHIBITION OF ITO AS TREATMENT FOR THE J WAVE SYNDROMES AND HYPOTHERMIA” (Lankenau Institute for Medical Research, priority 2021, published 2025)

Legend:
Nav1.5 = target: T1, Nav1.5 (Homo sapiens, UniProt Q14524); test: Automated patch clamp (Qube-384) of INa in HEK cells transfected with SCN5A+SCN1B; assay type: cell-based
T1 construct: expressed in transfected cells; host or cells: HEK cells, transfected with Lipofectamine 2000
Method: (§1) HEK cells transiently transfected with wild-type SCN5A (α subunit—Nav1.5) together with SCN1B (β1 subunit) using Lipofectamine 2000 were used to assess the effect of AR-787 on the cardiac sodium channel current (INa). All cells were incubated at 37° C./5% CO2. All cell culture reagents were purchased from Thermo Fisher Scientific (Waltham, MA).
(§2) The effect of AR-787 on cardiac sodium channel current was evaluated in HEK cells co-transfected with SCN5A and SCN1B. INa was measured in the whole-cell configuration using a Qube-384 (Sophion A/S, Copenhagen, Denmark) automated voltage clamp system. A flipped Na^+ gradient was used where the extracellular solution contained (in mM): 125 choline chloride, 1 NaCl, 5 KCl, 2 CaCl2, 1 MgCl2, 10 HEPES/NaOH, pH 7.4 (adjusted with NaOH), and the intracellular solution contained (in mM): 115 NaF, 15 CsCl2, 5 CsF, 3 Na2ATP, 0.3 Na2GTP, 2 MgCl2, 0.1 CaCl2, 10 EGTA, and 10 HEPES/CsOH, pH 7.2 (adjusted with NaOH). The currents were low-pass-filtered at 5 kHz and recorded at 25 kHz sampling frequency. Series resistance compensation was applied at 100%, and leak subtraction was enabled. Experiments were performed at room temperature (27° C.). Appropriate filters for cell membrane resistance (typically >500 MΩ), series resistance (<10 MΩ), and Nav current magnitude (>500 pA at a test pulse from a resting holding potential of −120 mV) were routinely applied to exclude poor quality cells. Vehicle (0.5% DMSO) controls were run on each plate to enable correction for any compound independent decrease of currents over time.
(§3) We used a double voltage-pulse protocol designed specifically to assess whether the compound is a potentiator, inhibitor, or both. The protocol assesses these parameters at both rest and partially inactivated holding potentials. Currents were assessed by a test pulse of 0 mV from a holding potential at rest (−120 mV) before preconditioning channels to their appropriate mid-potential (V1/2) values (NaV1.5 V1/2=−90 mV) for 10 s. Peak current, time constant of inactivation (τ inactivation) and persistent current were measured.
(§4) Time constants (τ) for fast inactivation onset were derived by fitting a single exponential function to the decay of current obtained from the depolarizing test pulse following a holding potential of −120 mV.
(§5) where I is current amplitude, Iss is the plateau amplitude, α is the amplitude at time 0 for time constant τ, and t is time. Persistent sodium current was measured during a 10 ms test pulse from −120 mV to 0 mV. It was calculated as a percentage of peak sodium current at 5 ms.

Nav1.5 (peak INa) = target: T2, Nav1.5 (peak INa) (Homo sapiens, UniProt Q14524); test: as above; assay type: cell-based; details: human, pH 7.4; 50 μM; holding potential −90 mV
T2 construct: expressed in transfected cells; host or cells: HEK cells, transfected with Lipofectamine 2000
Method: as §1, §2, §3, §4, §5

[1] = test system: coronary-perfused canine right ventricular (RV) wedge models of JWS, hypothermia; test: Coronary-perfused RV wedge model of hypothermia (NS5806 plus decreasing temperature); details: NS5806 2 μM, 32.7±0.5° C., AR-787 10 μM, 20 min
Method: Transmural wedges were dissected from the base of the RV and LV. During the cannulation procedure, preparations were initially arterially perfused with cardioplegic solution. Next, the wedge preparations were placed in a tissue bath and perfused with a modified Krebs-Henseleit solution (K—H) bubbled with 95% O2/5% CO2 warmed to 37° C. The composition of K—H was (in mM): 118 NaCl, 4 KCl, 2 CaCl2, 1.2 MgSO4, 24 NaHCO3, 1.2 NaH2PO4, 2 Na Pyruvate and 10 D-Glucose. The perfusate was delivered at a constant pressure (45-50 mmHg). A transmural pseudo-ECG (ECG) was recorded using two Ag/AgCl half cells placed at ˜1 cm from the Epi (+) and Endo (−) surfaces along the same axis as the transmembrane action potential (AP) recordings. APs were simultaneously recorded from the immediate sub-Epi and M cell region (˜2-3 mm from the Endo surface) using floating glass microelectrodes. […] A detailed description of the arterially-perfused ventricular wedge preparation has been previously published.^5 ECG and AP signals were digitized and analyzed using Spike 2 for Windows (Cambridge Electronic Design, Cambridge, UK). […]
FIG. 9A-9C show the ability of AR-787 to suppress the ECG and arrhythmic manifestations in a model of hypothermia. […] The third grouping was recorded 10 minutes after lowering the temperature of the perfusate to 32.7±0.5° C. […] The fourth column was recorded 20 min after addition of AR-787 (10 μM).

[2] = 50 μM, holding potential −120 mV
[3] = 50 μM, mid-voltage holding potential (NaV1.5 V1/2 = −90 mV)

T1 sequence (Q14524 whole entry): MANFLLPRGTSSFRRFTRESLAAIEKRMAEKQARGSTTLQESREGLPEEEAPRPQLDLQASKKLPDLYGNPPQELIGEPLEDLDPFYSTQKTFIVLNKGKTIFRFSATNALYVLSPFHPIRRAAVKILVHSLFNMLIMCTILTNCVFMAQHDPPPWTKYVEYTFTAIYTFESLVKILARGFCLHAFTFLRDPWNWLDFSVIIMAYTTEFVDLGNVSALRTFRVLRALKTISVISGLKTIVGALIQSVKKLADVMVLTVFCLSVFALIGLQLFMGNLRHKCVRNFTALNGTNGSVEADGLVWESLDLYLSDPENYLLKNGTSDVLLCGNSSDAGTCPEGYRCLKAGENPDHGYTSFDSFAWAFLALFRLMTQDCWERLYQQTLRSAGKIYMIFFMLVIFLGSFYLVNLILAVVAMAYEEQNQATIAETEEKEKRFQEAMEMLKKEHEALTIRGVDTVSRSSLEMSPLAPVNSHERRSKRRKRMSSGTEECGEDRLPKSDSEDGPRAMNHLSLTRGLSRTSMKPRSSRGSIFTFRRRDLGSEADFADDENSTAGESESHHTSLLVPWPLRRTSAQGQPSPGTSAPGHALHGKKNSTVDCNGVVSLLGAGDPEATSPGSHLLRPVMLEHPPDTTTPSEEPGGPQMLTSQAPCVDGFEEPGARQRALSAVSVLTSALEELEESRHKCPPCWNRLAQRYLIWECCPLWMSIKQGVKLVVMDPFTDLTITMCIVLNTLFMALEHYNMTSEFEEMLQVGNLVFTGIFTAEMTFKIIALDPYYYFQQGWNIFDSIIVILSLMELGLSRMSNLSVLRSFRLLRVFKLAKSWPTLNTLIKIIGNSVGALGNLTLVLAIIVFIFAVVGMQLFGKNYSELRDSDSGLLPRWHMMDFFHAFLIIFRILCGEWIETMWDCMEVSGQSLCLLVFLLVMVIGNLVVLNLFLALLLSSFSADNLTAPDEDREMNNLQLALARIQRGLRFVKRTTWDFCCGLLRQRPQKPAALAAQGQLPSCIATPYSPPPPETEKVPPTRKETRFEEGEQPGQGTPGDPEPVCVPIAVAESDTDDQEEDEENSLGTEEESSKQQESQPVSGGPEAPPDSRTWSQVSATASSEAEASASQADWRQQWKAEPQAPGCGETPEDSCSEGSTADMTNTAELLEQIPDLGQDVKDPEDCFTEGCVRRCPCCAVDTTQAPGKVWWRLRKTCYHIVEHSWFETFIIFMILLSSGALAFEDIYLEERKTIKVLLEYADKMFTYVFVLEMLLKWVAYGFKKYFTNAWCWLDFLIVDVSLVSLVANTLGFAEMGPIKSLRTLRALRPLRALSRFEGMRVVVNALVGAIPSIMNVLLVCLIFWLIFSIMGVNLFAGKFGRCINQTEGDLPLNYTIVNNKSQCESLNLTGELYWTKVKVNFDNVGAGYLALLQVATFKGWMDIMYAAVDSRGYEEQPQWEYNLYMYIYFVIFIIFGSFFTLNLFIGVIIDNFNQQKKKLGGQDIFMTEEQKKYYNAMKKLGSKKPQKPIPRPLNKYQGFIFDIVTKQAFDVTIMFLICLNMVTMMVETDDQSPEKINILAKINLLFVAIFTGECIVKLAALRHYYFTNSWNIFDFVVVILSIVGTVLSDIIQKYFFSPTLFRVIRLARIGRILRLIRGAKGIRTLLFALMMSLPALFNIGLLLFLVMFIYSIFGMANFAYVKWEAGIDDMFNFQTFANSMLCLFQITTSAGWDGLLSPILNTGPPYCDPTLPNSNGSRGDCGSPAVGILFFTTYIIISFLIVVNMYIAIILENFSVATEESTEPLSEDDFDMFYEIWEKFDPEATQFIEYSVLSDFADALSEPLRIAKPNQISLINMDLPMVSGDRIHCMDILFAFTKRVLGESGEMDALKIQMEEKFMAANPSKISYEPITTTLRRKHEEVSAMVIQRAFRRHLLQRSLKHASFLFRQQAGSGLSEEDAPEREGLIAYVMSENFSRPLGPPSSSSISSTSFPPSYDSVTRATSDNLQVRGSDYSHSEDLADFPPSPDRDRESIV
T1 sequence (Q07699 19-218 partner): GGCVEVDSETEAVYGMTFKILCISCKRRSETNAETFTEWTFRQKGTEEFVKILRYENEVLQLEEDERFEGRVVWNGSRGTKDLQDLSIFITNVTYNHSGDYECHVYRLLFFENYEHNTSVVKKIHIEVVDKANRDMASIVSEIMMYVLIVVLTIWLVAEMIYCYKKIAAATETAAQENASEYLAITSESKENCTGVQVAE
T2 sequence (Q14524 whole entry): as the sequence (Q14524 whole entry) above
T2 sequence (Q07699 19-218 partner): as the sequence (Q07699 19-218 partner) above

Cc1nc(-n2cccc2)sc1C(=O)N=c1[nH]c2ccccc2[nH]1 [AR-787, N-(1H-benzimidazol-2-yl)-4-methyl-2-pyrrol-1-yl-thiazole-5-carboxamide]
Normalized AUC (Nav1.5; 50 μM): 1.03 ± 0.06
reduction of INa (Nav1.5; 50 μM, 0 mV test pulse from holding potential −120 mV): ~32%
deceleration of fast inactivation kinetics (Nav1.5; 50 μM, holding potential −90 mV): this effect was abolished
Normalized Inhibition (−120 mV) (Nav1.5; [2]): 0.32 ± 0.03
Normalized τinactivation (−120 mV) (Nav1.5; [2]): 1.45 ± 0.07
deceleration of fast inactivation kinetics (Nav1.5; [2]): ~1.5 fold
Normalized Inhibition (−65 mV and −90 mV) (Nav1.5; [3]): 0.78 ± 0.02
Normalized τinactivation (−65 mV and −90 mV) (Nav1.5; [3]): 1.11 ± 0.10
Normalized Persistent Current (5 ms) (Nav1.5; 50 μM, percentage of peak sodium current at 5 ms, from −120 mV to 0 mV): 10.44 ± 3.30
increase of late INa (persistent sodium current, percent of peak current) (Nav1.5; at 5 ms of a 10 ms depolarization to 0 mV from −120 mV): ~10%
inhibition at 50 µM (Nav1.5 (peak INa)): 80%
hypothermia-induced AP notch, J wave, phase 2 reentry and pVT [1]: diminished the action potential (AP) notch and J wave
